Test results as given in patent US20200288713A1, “PESTICIDALLY ACTIVE PYRAZOLE DERIVATIVES” (SYNGENTA PARTICIPATIONS AG, priority 2017, published 2020).
Like-named read-outs stand apart in the source and are kept apart here.

Columns and labels:
Assay type in all cases: in vivo
Diabrotica balteata = Diabrotica balteata (corn root worm) mortality test on maize sprouts; conditions: 96 h, application rate 200 ppm, L2 larvae on sprayed maize sprouts, assessed 4 days after infestation
Description: Diabrotica balteata (Corn Root Worm):
Maize sprouts placed onto an agar layer in 24-well microtiter plates were treated with aqueous test solutions prepared from 10′000 ppm DMSO stock solutions by spraying. After drying, the plates were infested with L2 larvae (6 to 10 per well). The samples were assessed for mortality 4 days after infestation.

Euschistus heros = Euschistus heros (neotropical brown stink bug) feeding/contact activity; conditions: 120 h
Description: Euschistus heros (Neotropical Brown Stink Bug): Feeding/Contact Activity
Soybean leaves on agar in 24-well microtiter plates were sprayed with aqueous test solutions prepared from 10′000 ppm DMSO stock solutions. After drying the leaves were infested with N2 nymphs. The samples were assessed for mortality 5 days after infestation.

Myzus persicae = Myzus persicae (green peach aphid) feeding/contact activity; conditions: foliar, 144 h
Description: Myzus persicae (Green Peach Aphid): Feeding/Contact Activity
(§1) Sunflower leaf discs were placed onto agar in a 24-well microtiter plate and sprayed with aqueous test solutions prepared from 10′000 ppm DMSO stock solutions. After drying, the leaf discs were infested with an aphid population of mixed ages. The samples were assessed for mortality 6 days after infestation.

Plutella xylostella = Plutella xylostella (diamond back moth) feeding/contact activity; conditions: 120 h
Description: Plutella xylostella (Diamond Back Moth): Feeding/Contact Activity
24-well microtiter plates with artificial diet were treated with aqueous test solutions prepared from 10′000 ppm DMSO stock solutions by pipetting. After drying, the plates were infested with L2 larvae (10 to 15 per well). The samples were assessed for mortality 5 days after infestation.

Spodoptera littoralis = Spodoptera littoralis (Egyptian cotton leaf worm) feeding/contact activity; conditions: foliar, 72 h
Description: Spodoptera littoralis (Egyptian cotton leaf worm): Feeding/contact activity Cotton leaf discs were placed onto agar in 24-well microtiter plates and sprayed with aqueous test solutions prepared from 10′000 ppm DMSO stock solutions. After drying the leaf discs were infested with five L1 larvae. The samples were assessed for mortality 3 days after infestation.

Tetranychus urticae = Tetranychus urticae (two-spotted spider mite) feeding/contact activity; conditions: foliar, 192 h, read-out: mortality on mixed population (mobile stages)
Description: Tetranychus urticae (Two-Spotted Spider Mite): Feeding/Contact Activity
Bean leaf discs on agar in 24-well microtiter plates were sprayed with aqueous test solutions prepared from 10′000 ppm DMSO stock solutions. After drying the leaf discs were infested with a mite population of mixed ages. The samples were assessed for mortality on mixed population (mobile stages) 8 days after infestation.

Thrips tabaci = Thrips tabaci (onion thrips) feeding/contact activity; conditions: foliar, 144 h
Description: Thrips tabaci (Onion Thrips): Feeding/Contact Activity
as §1, with “on” for “onto”, “in” for “in a”, “plates” for “plate”, “drying” for “drying,”, “a thrips” for “an aphid”

[1] = application rate 200 ppm, N2 nymphs on sprayed soybean leaves, assessed 5 days after infestation, read-out: mortality
[2] = application rate 200 ppm, aphid population of mixed ages on sprayed sunflower leaf discs, assessed 6 days after infestation, read-out: mortality
[3] = application rate 200 ppm, L2 larvae on treated artificial diet, assessed 5 days after infestation, read-out: mortality
[4] = application rate 200 ppm, L1 larvae on sprayed cotton leaf discs, assessed 3 days after infestation, read-out: mortality
[5] = application rate 200 ppm, mite population of mixed ages on sprayed bean leaf discs, assessed 8 days after infestation
[6] = application rate 200 ppm, thrips population of mixed ages on sprayed sunflower leaf discs, assessed 6 days after infestation, read-out: mortality

Measured: mortality at 200 ppm

Cn1nc(C(F)(F)C(F)(F)F)c(OC(F)F)c1-n1cc(-c2ccc(C(F)(F)F)c(C(=O)NC3(C#N)CC3)c2)cn1 [Compound 1, N-(1-cyanocyclopropyl)-5-[1-[4-(difluoromethoxy)-2-methyl-5-(1,1,2,2,2-pentafluoroethyl)pyrazol-3-yl]pyrazol-4-yl]-2-(trifluoromethyl)benzamide]
≥ 80%: Diabrotica balteata | Euschistus heros; [1] | Myzus persicae; [2] | Plutella xylostella; [3] | Spodoptera littoralis; [4] | Tetranychus urticae; [5] | Thrips tabaci; [6]

CN(C(=O)c1cc(-c2cnn(-c3c(OC(F)F)c(C(F)(F)C(F)(F)F)nn3C)c2)ccc1C(F)(F)F)C1(C#N)CC1 [Compound 2, N-(1-cyanocyclopropyl)-5-[1-[4-(difluoromethoxy)-2-methyl-5-(1,1,2,2,2-pentafluoroethyl)pyrazol-3-yl]pyrazol-4-yl]-N-methyl-2-(trifluoromethyl)benzamide]
≥ 80%: Diabrotica balteata | Euschistus heros; [1] | Myzus persicae; [2] | Plutella xylostella; [3] | Spodoptera littoralis; [4] | Tetranychus urticae; [5] | Thrips tabaci; [6]

CCN(C(=O)c1cc(-c2cnn(-c3c(OC(F)F)c(C(F)(F)C(F)(F)F)nn3C)c2)ccc1C(F)(F)F)C1(C#N)CC1 [Compound 3, N-(1-cyanocyclopropyl)-5-[1-[4-(difluoromethoxy)-2-methyl-5-(1,1,2,2,2-pentafluoroethyl)pyrazol-3-yl]pyrazol-4-yl]-N-ethyl-2-(trifluoromethyl)benzamide]
≥ 80%: Diabrotica balteata | Euschistus heros; [1] | Myzus persicae; [2] | Plutella xylostella; [3] | Spodoptera littoralis; [4] | Tetranychus urticae; [5] | Thrips tabaci; [6]

Cn1nc(C(F)(F)C(F)(F)F)c(OC(F)F)c1-n1cc(-c2ccc(C(F)(F)F)c(C(=O)NC3CC3)c2)cn1 [Compound 4, N-cyclopropyl-5-[1-[4-(difluoromethoxy)-2-methyl-5-(1,1,2,2,2-pentafluoroethyl)pyrazol-3-yl]pyrazol-4-yl]-2-(trifluoromethyl)benzamide]
≥ 80%: Diabrotica balteata | Euschistus heros; [1] | Myzus persicae; [2] | Plutella xylostella; [3] | Spodoptera littoralis; [4] | Tetranychus urticae; [5] | Thrips tabaci; [6]

Cn1nc(C(F)(F)C(F)(F)F)c(OC(F)F)c1-n1cc(-c2ccc(C(F)(F)F)c(C(=O)N(CC3CC3)C3(C#N)CC3)c2)cn1 [Compound 5, N-(1-cyanocyclopropyl)-N-(cyclopropylmethyl)-5-[1-[4-(difluoromethoxy)-2-methyl-5-(1,1,2,2,2-pentafluoroethyl)pyrazol-3-yl]pyrazol-4-yl]-2-(trifluoromethyl)benzamide]
≥ 80%: Euschistus heros; [1] | Myzus persicae; [2] | Plutella xylostella; [3] | Spodoptera littoralis; [4] | Thrips tabaci; [6]

CC(=O)N(C(=O)c1cc(-c2cnn(-c3c(OC(F)F)c(C(F)(F)C(F)(F)F)nn3C)c2)ccc1C(F)(F)F)C1(C#N)CC1 [Compound 6, N-acetyl-N-(1-cyanocyclopropyl)-5-[1-[4-(difluoromethoxy)-2-methyl-5-(1,1,2,2,2-pentafluoroethyl)pyrazol-3-yl]pyrazol-4-yl]-2-(trifluoromethyl)benzamide]
≥ 80%: Euschistus heros; [1] | Myzus persicae; [2] | Plutella xylostella; [3] | Spodoptera littoralis; [4] | Tetranychus urticae; [5] | Thrips tabaci; [6]

COCN(C(=O)c1cc(-c2cnn(-c3c(OC(F)F)c(C(F)(F)C(F)(F)F)nn3C)c2)ccc1C(F)(F)F)C1(C#N)CC1 [Compound 7, N-(1-cyanocyclopropyl)-5-[1-[4-(difluoromethoxy)-2-methyl-5-(1,1,2,2,2-pentafluoroethyl)pyrazol-3-yl]pyrazol-4-yl]-N-(methoxymethyl)-2-(trifluoromethyl)benzamide]
≥ 80%: Euschistus heros; [1] | Myzus persicae; [2] | Plutella xylostella; [3] | Spodoptera littoralis; [4] | Tetranychus urticae; [5] | Thrips tabaci; [6]

Cn1nc(C(F)(F)C(F)(F)F)c(OC(F)F)c1-n1cc(-c2ccc(C(F)(F)F)c(C(=O)N(CC#N)C3(C#N)CC3)c2)cn1 [Compound 8, N-(1-cyanocyclopropyl)-N-(cyanomethyl)-5-[1-[4-(difluoromethoxy)-2-methyl-5-(1,1,2,2,2-pentafluoroethyl)pyrazol-3-yl]pyrazol-4-yl]-2-(trifluoromethyl)benzamide]
≥ 80%: Euschistus heros; [1] | Myzus persicae; [2] | Plutella xylostella; [3] | Spodoptera littoralis; [4] | Tetranychus urticae; [5] | Thrips tabaci; [6]

CCOC(=O)N(C(=O)c1cc(-c2cnn(-c3c(OC(F)F)c(C(F)(F)C(F)(F)F)nn3C)c2)ccc1C(F)(F)F)C1(C#N)CC1 [Compound 9, ethyl N-(1-cyanocyclopropyl)-N-[5-[1-[4-(difluoromethoxy)-2-methyl-5-(1,1,2,2,2-pentafluoroethyl)pyrazol-3-yl]pyrazol-4-yl]-2-(trifluoromethyl)benzoyl]carbamate]
≥ 80%: Euschistus heros; in Glycine max | Myzus persicae | Plutella xylostella | Spodoptera littoralis | Tetranychus urticae | Thrips tabaci

C#CCN(C(=O)c1cc(-c2cnn(-c3c(OC(F)F)c(C(F)(F)C(F)(F)F)nn3C)c2)ccc1C(F)(F)F)C1(C#N)CC1 [Compound 10]
≥ 80%: Euschistus heros; [1] | Myzus persicae; [2] | Plutella xylostella; [3] | Spodoptera littoralis; [4] | Tetranychus urticae; [5] | Thrips tabaci; [6]
